Assay [1] deals with rat remnant kidney model. Nature of the assay: Efficacy in rat remnant kidney model of nephropathy (renal mass reduction). The format is in vivo. Conditions: for Mortality Rates in Remnant Kidney Model / Mortality compared to the vehicle treated group: in drinking water; for Mortality Rates in Remnant Kidney Model: started 21 days after RMR, n=12/group; for Mortality compared to the vehicle treated group: Compound 1 30 mg/kg/d, losartan 10 mg/kg; for percentage of sclerotic glomeruli compared with vehicle: renal histology at termination of the experiment; for number of ED 1 positive cells per field (monocytes/macrophages in the renal interstitium): renal histology at termination, not statistically significant vs vehicle (61±5). An excerpt: (§1) The rat remnant kidney model is an animal model of severe progressive renal failure. In this model, a state of severe progressive renal failure is produced by renal mass reduction (RMR) through removal of one kidney and ligation of several branches of the renal artery, resulting in infarction and loss of function of two thirds of the remaining kidney. The procedure creates the conditions of severe hypertension, proteinuria, progressive renal function deterioration, tubulointerstitial damage and glomerulosclerosis (Olson J L, Hostetter T H, Rennke H G, Brenner B M, Venkatachalam M A: “Altered glomerular permselectivity and progressive sclerosis following extreme ablation of renal mass”. Kidney Int 22:112-126, 1982).
Nephropathy is evident as a progressively increasing amount of protein in urine, increases in serum creatinine and increases in arterial pressure. In addition, severe sclerosis of the glomeruli, inflammatory cell infiltration and tubular damage are measurable through histological analysis within 3 months of RMR. These measures form the basis for determining efficacy in the model. Urine protein, serum creatinine and arterial pressure are similarly measured in humans to determine impact of treatments on disease progression.
The aim of this study was to evaluate the effects of Compound 1 compared to an angiotensin receptor blocker (losartan), as well as the combination treatment with Compound 1 and losartan, on proteinuria and renal disease progression in this model. The effectiveness of these agents has been associated with reductions in proteinuria, slowing of the rate of rise in serum creatinine and reduction in glomerular sclerosis and thus slowing of the progression to end stage renal failure.
(§2) Treatment groups (n=12/group) included vehicle; Compound 1 at 30 mg/kg/d; losartan at 10 mg/kg; and losartan at 10 mg/kg+Compound 1 at 30 mg/kg/d. All compounds were administered in drinking water. An additional sham-operated untreated group was also included. Measurements were made at 21 d after RMR but before treatment, and at one and two months of treatment.
At the termination of the experiment kidneys were examined quantitatively for histopathological damage. […] Accumulation of monocytes/macrophages in the renal interstitium was quantified as the number of ED 1 (an antibody to CD68, a monocyte/macrophage specific antigen) positive cells per field.

The subject of assay [2] is rat remnant kidney model. Nature of the assay: Blood pressure in rat remnant kidney model. The format is in vivo. Conditions: 1- and 2-months of treatment.
From the text: as §1
Treatments were started 21 days after RMR, when animals already had overt nephropathy. Treatment groups (n=12/group) included vehicle; Compound 1 at 30 mg/kg/d; losartan at 10 mg/kg; and losartan at 10 mg/kg+Compound 1 at 30 mg/kg/d. All compounds were administered in drinking water. An additional sham-operated untreated group was also included. Measurements were made at 21 d after RMR but before treatment, and at one and two months of treatment. Mortality was less in the Compound 1, losartan and Compound 1+ losartan groups compared to the vehicle treated group (Table 1). […]

The test system of another assay is remnant kidney model. Nature of the assay: Water intake and diuresis in remnant kidney model. The format is in vivo, rat. The following applies: mean ± S.E.
From the text: as §1, §2

Setting [3] is: 2 month of treatment, n = 10, 10 and 11.
The mark [4] stands for this setting: Pre-treatment (21 d after RMR), n = 12.

Structures are written as SMILES.

`CCCCc1nc(Cl)c(CO)n1Cc1ccc(-c2ccccc2-c2nn[nH]n2)cc1` [losartan]: the “Mortality Rates in Remnant Kidney Model” value in the assay on rat remnant kidney model [1] (1 month of treatment) was 12/12. In addition, the “Mortality Rates in Remnant Kidney Model” value with rat remnant kidney model [1] (2 month of treatment) was 2/12. For the same molecule, in the assay on rat remnant kidney model [1], the “Mortality compared to the vehicle treated group” value is given as “less”, the “percentage of sclerotic glomeruli compared with vehicle” value is “significant reduction” and the “number of ED 1 positive cells per field (monocytes/macrophages in the renal interstitium)” value came to 38±6 positive cells per field. In the assay with rat remnant kidney model [1] (at 1 and 2 months of treatment), the “serum creatinine compared to the vehicle group” value was “reduced”, the “statistical significance of the effect on urine protein excretion” value is given as “not statistically significant” and the “urine protein excretion compared to the vehicle group” value is on record as “reduced”. Besides, the “arterial pressure compared to vehicle” value with rat remnant kidney model [2] is reported as “statistically significant decrease”. In the assay with remnant kidney model (1 month of treatment, n = 12), this molecule came in with a diuresis of 45 ± 3 mL/24 h and a water intake of 77 ± 4 mL/24 h. Besides, in the assay on remnant kidney model (setting [3]), the diuresis was determined as 45 ± 4 mL/24 h and the water intake stood at 76 ± 5 mL/24 h. In the assay on remnant kidney model (setting [4]), the diuresis came to 45 ± 3 mL/24 h and the water intake came to 68 ± 4 mL/24 h. In the assay on remnant kidney model (basal, n = 12), this molecule gave a diuresis of 20 ± 1 mL/24 h and a water intake of 46 ± 2 mL/24 h.
On to `COc1cc(C(=O)N2CC[C@]3(C=C(C(=O)O)CC3)Cc3ccccc32)ccc1NC(=O)c1cc(F)ccc1Cl` [Compound 1], for which the “Mortality Rates in Remnant Kidney Model” value in the assay with rat remnant kidney model [1] (1 month of treatment) was 12/12. Moreover, the “Mortality Rates in Remnant Kidney Model” value in the assay on rat remnant kidney model [1] (2 month of treatment) is reported as 2/12. Also, in the assay with rat remnant kidney model [1], the “Mortality compared to the vehicle treated group” value is reported as “less”, the “percentage of sclerotic glomeruli compared with vehicle” value is “tended to decrease” and the “number of ED 1 positive cells per field (monocytes/macrophages in the renal interstitium)” value amounted to 45±5 positive cells per field. Also, in the assay with rat remnant kidney model [1] (at 1 and 2 months of treatment), the “serum creatinine compared to the vehicle group” value is “reduced” and the “urine protein excretion compared to the vehicle group” value is on record as “reduced”. Moreover, the “arterial pressure compared to vehicle” value with rat remnant kidney model [2] is on record as “tended to decrease”. Also, in the assay on remnant kidney model (1 month of treatment, n = 12), the diuresis was 47 ± 4 mL/24 h and the water intake worked out at 70 ± 8 mL/24 h. In the assay on remnant kidney model (setting [3]), this molecule yielded a diuresis of 43 ± 5 mL/24 h and a water intake of 72 ± 10 mL/24 h. Moreover, in the assay on remnant kidney model (setting [4]), the diuresis is 44 ± 3 mL/24 h and the water intake stood at 65 ± 2 mL/24 h. Besides, in the assay with remnant kidney model (basal, n = 12), the diuresis is recorded as 19 ± 1 mL/24 h and the water intake is given as 43 ± 2 mL/24 h.

The values above are taken from patent US20100093701A1, “COMBINATION THERAPY COMPRISING ANGIOTENSIN RECEPTOR BLOCKERS AND VASOPRESSIN RECEPTOR ANTAGONISTS” (priority 2008, published 2010).
